Source: the NIST ThermoML archive (doi:10.1021/je049595u)

Tests used:
[1] = Molar enthalpy of transition or fusion; details: Crystal
[2] = molar heat capacity at saturation pressure

Cc1ccc2ccccc2n1 [2-methylquinoline]
Details | Molar enthalpy of transition or fusion [kcal/mol] | Triple point temperature [K]
Crystal | – | 270.48
[1] | 2.992 | –

Details | mass density [kg/m3] | molar heat capacity [J/K/mol] | vapor or sublimation pressure [kPa]
319.99 K, Liquid, Inclined piston gauge | – | – | 0.0315
329.98 K, Liquid, Inclined piston gauge | – | – | 0.063
339.99 K, Liquid, Inclined piston gauge | – | – | 0.1198
349.98 K, Liquid, Inclined piston gauge | – | – | 0.2174
364.98 K, Liquid, Inclined piston gauge | – | – | 0.4962
374.98 K, Liquid, Inclined piston gauge | – | – | 0.8233
384.97 K, Liquid, Inclined piston gauge | – | – | 1.323
394.24 K, Liquid, Twin ebulliometer | – | – | 2
394.97 K, Liquid, Inclined piston gauge | – | – | 2.066
404.97 K, Liquid, Inclined piston gauge | – | – | 3.141
411.02 K, Liquid, Twin ebulliometer | – | – | 4
418.53 K, Liquid, Twin ebulliometer | – | – | 5.333
429.68 K, Liquid, Twin ebulliometer | – | – | 7.999
438.05 K, Liquid, Twin ebulliometer | – | – | 10.67
444.81 K, Liquid, Twin ebulliometer | – | – | 13.33
451.84 K, Liquid, Twin ebulliometer | – | – | 16.66
457.68 K, Liquid, Twin ebulliometer | – | – | 19.93
465.36 K, Liquid, Twin ebulliometer | – | – | 25.02
473.1 K, Liquid, Twin ebulliometer | – | – | 31.18
480.89 K, Liquid, Twin ebulliometer | – | – | 38.56
488.72 K, Liquid, Twin ebulliometer | – | – | 47.38
496.61 K, Liquid, Twin ebulliometer | – | – | 57.82
504.55 K, Liquid, Twin ebulliometer | – | – | 70.12
512.53 K, Liquid, Twin ebulliometer | – | – | 84.53
520.57 K, Liquid, Twin ebulliometer | – | – | 101.33
528.66 K, Liquid, Twin ebulliometer | – | – | 120.79
536.8 K, Liquid, Twin ebulliometer | – | – | 143.25
544.98 K, Liquid, Twin ebulliometer | – | – | 169.02
553.22 K, Liquid, Twin ebulliometer | – | – | 198.49
561.5 K, Liquid, Twin ebulliometer | – | – | 232.02
569.83 K, Liquid, Twin ebulliometer | – | – | 270.02
762.9 K, Gas, Measured as part of TC determination by DSC | 163.3 | – | –
773.9 K, Liquid, Measured as part of TC determination by DSC | 410.8 | – | –
775.2 K, Gas, Measured as part of TC determination by DSC | 236.6 | – | –
775.9 K, Liquid, Measured as part of TC determination by DSC | 355.4 | – | –
777.9 K, Gas, Measured as part of TC determination by DSC | 292.9 | – | –
[2], 460 K, Liquid | – | 291.16 | –
[2], 480 K, Liquid | – | 299.73 | –
[2], 500 K, Liquid | – | 308.3 | –
[2], 520 K, Liquid | – | 316.87 | –
[2], 540 K, Liquid | – | 325.39 | –
[2], 560 K, Liquid | – | 333.78 | –
[2], 580 K, Liquid | – | 341.97 | –
[2], 600 K, Liquid | – | 349.93 | –
[2], 620 K, Liquid | – | 357.61 | –
[2], 640 K, Liquid | – | 365.01 | –
[2], 660 K, Liquid | – | 372.23 | –
[2], 680 K, Liquid | – | 379.58 | –
[2], 700 K, Liquid | – | 387.75 | –

Details | Critical temperature, Liquid [K] | mass density, 323.14 K [kg/m3] | mass density, 348.14 K [kg/m3] | mass density, 373.12 K [kg/m3] | mass density, 398.12 K [kg/m3] | mass density, 423.11 K [kg/m3] | mass density, 448.11 K [kg/m3] | mass density, 473.11 K [kg/m3] | mass density, 498.11 K [kg/m3] | mass density, 523.11 K [kg/m3]
DTA | 778 | – | – | – | – | – | – | – | – | –
Liquid | – | 1035.2 | 1015.9 | 996.1 | 973.9 | 952.8 | 931.9 | 910.8 | 888.8 | 865.1

molar heat capacity [J/K/mol], [2], Vacuum adiabatic calorimetry
Details | Crystal | Liquid
5 K | 0.46 | –
5.565 K | 0.62 | –
6.404 K | 0.956 | –
7.354 K | 1.4 | –
8.354 K | 1.96 | –
9.372 K | 2.64 | –
10 K | 3.14 | –
10.39 K | 3.48 | –
11.53 K | 4.41 | –
12.8 K | 5.65 | –
14.21 K | 7.09 | –
15.75 K | 8.78 | –
17.46 K | 10.78 | –
19.36 K | 13.04 | –
20 K | 13.79 | –
21.49 K | 15.56 | –
23.83 K | 18.39 | –
26.43 K | 21.5 | –
29.31 K | 24.82 | –
30 K | 25.6 | –
32.52 K | 28.38 | –
36.12 K | 32.14 | –
39.68 K | 35.64 | –
40 K | 35.96 | –
43.66 K | 39.34 | –
48.56 K | 43.53 | –
50 K | 44.72 | –
52.54 K | 46.74 | –
53.49 K | 47.45 | –
53.98 K | 47.92 | –
57.46 K | 50.56 | –
58.64 K | 51.46 | –
60 K | 52.34 | –
60.03 K | 52.29 | –
63.2 K | 54.47 | –
64.47 K | 55.29 | –
69.56 K | 58.68 | –
70 K | 58.93 | –
76.52 K | 62.82 | –
80 K | 64.8 | –
84.08 K | 67.08 | –
89.02 K | 69.74 | –
90 K | 70.27 | –
92.31 K | 71.48 | –
97.21 K | 73.97 | –
100 K | 75.42 | –
101.28 K | 76.06 | –
106.32 K | 78.59 | –
110.83 K | 80.82 | –
116.09 K | 83.37 | –
120 K | 85.27 | –
125.97 K | 88.15 | –
135.92 K | 92.98 | –
140 K | 94.96 | –
145.89 K | 97.82 | –
155.92 K | 102.78 | –
160 K | 104.8 | –
166.03 K | 107.81 | –
176.22 K | 112.93 | –
180 K | 114.86 | –
187.41 K | 118.71 | –
190.57 K | 120.24 | –
199.53 K | 125.07 | –
200 K | 125.32 | –
205.56 K | 128.27 | –
211.51 K | 131.45 | –
220 K | 135.9 | –
222.27 K | 136.99 | –
223.47 K | 137.78 | –
223.49 K | 138.03 | –
235.04 K | 144.29 | –
235.46 K | 144.65 | –
239.04 K | 146.8 | –
240 K | 147.3 | –
241.52 K | 148.31 | –
247.49 K | 151.95 | –
250 K | – | 205.2
250.7 K | 154.08 | –
251.78 K | – | 205.82
256.02 K | – | 207.51
257.75 K | 159.11 | –
259.67 K | 160.66 | –
260 K | 160.12 | 209.03
261.22 K | 161.55 | –
263.55 K | – | 210.39
270.48 K | 167.45 | 212.97
272.7 K | – | 213.77
277.13 K | – | 215.45
278.52 K | – | 216.02
280 K | – | 216.58
285.4 K | – | 218.72
286.61 K | – | 219.19
294.19 K | – | 222.16
298.15 K | – | 223.78
300 K | – | 224.52
300.52 K | – | 224.72
310.63 K | – | 228.85
320 K | – | 232.73
327.13 K | – | 235.7
340 K | – | 241.04
343.64 K | – | 242.54
360 K | – | 249.4
360.17 K | – | 249.47
376.73 K | – | 256.39
380 K | – | 257.77
393.31 K | – | 263.29
400 K | – | 266.05
409.82 K | – | 270.1
420 K | – | 274.27
426.33 K | – | 276.86
439.48 K | – | 282.23
440 K | – | 282.48
